Measurements from patent US20240173432A1, “Compositions and Methods for Treatment of Myotonic Dystrophy Type 1 with CRISPR/SluCas9” (Vertex Pharmaceuticals Incorporated, priority 2021, published 2024).

Tests used:
[1] = system: CAG foci in primary DM1 patient myoblasts; test: Single-cut screening: CAG foci staining; format: cell-based, human; settings: single sgRNA; for % of CAG foci positive nuclei (DNA-PKi): DNA-PKi treated
How it was run: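 Primary DM1 patient myoblasts were PFA-fixed and hybridized with […] (1 ng/μL, 15 min at 80° C) in 30% formamide/2×SSC, followed by anti-MBNL1 immunostaining and Hoechst counterstain. CAG RNA foci were quantified by high-content confocal imaging after single-cut SuCas9 sgRNA editing.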

[2] = system: 3′ UTR of the human DMPK gene; test: Single-cut screening: indel editing efficiency by Sanger sequencing and ICE analysis in primary DM1 patient myoblasts; format: cell-based; settings: vehicle-treated samples; for Indel efficiency: single SluCas9 sgRNA RNP in primary DM1 patient myoblasts, Sanger sequencing and ICE analysis; for indel efficiency (Sanger sequencing and ICE analysis): single-cut, SluCas9 RNP, 72 hrs post nucleofection, wild-type allele
Protocol: Genomic DNA of DM1 myoblasts was isolated with the Kingfisher Flex purification system (Thermal Fisher) in 96-well format following the manufacturer's instruction. The DMPK 3′ UTR region was amplified using GoTaq Green Master Mix (Promega) and PCR primers flanking the 3′ UTR region. […] Amplification was conducted using the following cycling parameters: 1 cycle at 95° C. for 2 min; 40 cycles of 95° C. for 30 sec, 63° C. for 30 sec, and 72° C. for 90 sec; 1 cycle at 72° C. for 5 min. Only the wild type allele is amplified by the PCR reaction. The PCR products were analyzed on the TapeStation system with High Sensitivity D5000 ScreenTape (Agilent Technologies).
PCR products were purified and sequenced by Sanger sequencing. […] Indel values were estimated using the ICE analysis algorithm (Synthego) with the chromatogram files obtained from Sanger sequencing.
RNPs were assembled with recombinant SluCas9 protein and chemically modified sgRNAs at a ratio of 1:3 (protein:sgRNA). For SINGLE-cut screening, RNP complexes were assembled with 30 pmol of SluCas9 and 90 pmol of sgRNA in P5 Primary Cell Nucleofector Solution (Lonza). After incubation at room temperature for 20 minutes, 10 μL of RNP complex were mixed with two hundred thousand of primary myoblasts resuspended in 10 μL of P5 Nucleofector Solution. For DOUBLE-cut screening, RNP complexes were first assembled for individual sgRNAs with 20 pmol of SluCas9 protein and 60 pmol of sgRNAs in 5 μL of P5 Nucleofector Solution. After incubation at room temperature for 20 minutes, the two RNP complexes (one for upstream sgRNA and one for downstream sgRNA) were mixed at 1:1 ratio and then further mixed with two hundred thousand of primary myoblasts resuspended in 10 μL of P5 Nucleofector Solution.
The Nucleofector 96-well Shuttle System (Lonza) was used to deliver the SluCa9/sgRNA RNPs into primary DM1 patient myoblasts using the nucleofection program CM138. […] 72 hrs post nucleofection, two wells of DMSO-treated myoblasts and two wells of DNA-PKi-treated myoblasts from each nucleofection were harvested for genomic DNA extraction using the Kingfisher Flex purification system (Thermal Fisher), whereas one well of DMSO-treated myoblasts and one well of DNA-PKi-treated myoblasts were stained for RNA foci by FISH staining.
To assess the efficiency of individual SluCas9 sgRNAs for inducing indel editing and CTG repeat excision, single-cut screening was performed in which individual SluCas9 sgRNAs and recombinant SluCas9 protein were assembled into ribonucleoprotein (RNP) and delivered into primary DM1 patient myoblasts. […] Seventy-two (72) hrs post nucleofection, myoblasts were subjected to either genomic DNA isolation or RNA foci staining by fluorescence in situ hybridization (FISH).
Sanger sequencing and ICE analysis were then performed to quantify the frequency of indels induced by individual sgRNAs. It is of note that only the vehicle-treated samples were used for ICE analysis.
Editing efficiency was assessed by Sanger sequencing and ICE analysis. […] The * indicates the sgRNAs with R2<0.9 in the ICE analysis (in-house QC standard for reliable ICE analysis).

[3] = system: CUG foci in primary DM1 patient myoblasts; test: Single-cut screening: FISH staining of CUG RNA foci; format: cell-based, human; settings: single sgRNA, primary DM1 patient myoblasts; for % of CUG foci free nuclei (DNA-PKi): DNA-PKi treated
How it was run: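 CD56-purified primary DM1 patient myoblasts nucleofected with SluCas9:sgRNA RNP (30:90 pmol, single-cut), then DMSO or 3 μM DNA-PK inhibitor for 48 h. At 72 h post-nucleofection, cells fixed and stained for CUG foci with Cy3-PNA(CAG)5 probe (1 ng/μL, 80 °C), co-stained for MBNL1 and Hoechst, imaged by high-content confocal microscopy.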

Substance | % of CAG foci positive nuclei (DNA-PKi) [1] [%] | % of CAG foci positive nuclei (Vehicle) [1] [%] | Indel efficiency [2] [%] | % of CUG foci free nuclei (DNA-PKi) [3] [%] | % of CUG foci free nuclei (Vehicle) [3] [%] | indel efficiency (Sanger sequencing and ICE analysis) [2]
CCACGCTCGGAGCGGTTGTGAA (guide RNA; chemistry not fully specified) [SluU24] | 1.56 | 1 | 28 | 50.23 | 20.62 | 
CCAGCCGGCTCCGCCCGCTTCG (listed as DNA, chemistry not fully specified) [SluD56] | 2.91 | 1.04 | 70 | 31.7 | 13.88 | high editing IN4DEL efficiency
CCAGGCTGAGGCCCTGACGTGG (listed as DNA, chemistry not fully specified) [SluD06] | 1.35 | 3.12 | 55 | 23.09 | 24.51 | high editing IN4DEL efficiency
CCAGTTCACAACCGCTCCGAGC (guide RNA; chemistry not fully specified) [SluU22] | 1.28 | 0.96 | 41 | 50.21 | 27.56 | 
CCATCCACGTCAGGGCCTCAGC (guide RNA; chemistry not fully specified) [SluD08] | 1.22 | 5 | 45 | 48.28 | 27.09 | 
CCCAACAACCCCAATCCACGTT (guide RNA; chemistry not fully specified) [SluD70] | 2.45 | 2.33 | 14 | 30.47 | 22.75 | 
CCCCCTAGCggccggggaggga (guide RNA; as printed in the source, key not given here) [SluU44] | 1.77 | 0.7 | 16 | 47 | 12.6 | 
CCCCGGGCACTCAGTCTTCCAA (guide RNA; chemistry not fully specified) [SluU12] | 1.38 | 1.29 | 20 | 50.23 | 16.44 | 
CCCCGTTGGAAGACTGAGTGCC (guide RNA; chemistry not fully specified) [SluU09] | 1.22 | 1.48 | 65 | 74.97 | 26.05 | 
CCCCTCCTCACTTGCGCTGCTC (guide RNA; chemistry not fully specified) [SluD47] | 1.11 | 1 | 18 | 28.63 | 8.95 | 
CCCGGGCACTCAGTCTTCCAAC (guide RNA; chemistry not fully specified) [SluU11] | 1.27 | 1.44 | 21 | 52.22 | 19.12 | 
CCCGTTGGAAGACTGAGTGCCC (listed as DNA, chemistry not fully specified) [SluU10] | 0.66 | 2 | 81 | 72.18 | 27.04 | high editing IN4DEL efficiency
CCCTAGAACTGTCTTCGACTCC (guide RNA; chemistry not fully specified) [SluU03] | 2.04 | 1.05 | 9 | 49.49 | 11.12 | 
CCGAGAGCAGCGCAAGTGAGGA (guide RNA; chemistry not fully specified) [SluD50] | 2.2 | 1.81 | 4 | 30.13 | 7.64 | 
CCGGGCCCGCCCCCTAGCggcc (guide RNA; as printed in the source, key not given here) [SluU37] | 2.28 | 0.72 | 15 | 30.58 | 8.09 | 
CCTCCGACTCGCTGACAGGCTA (guide RNA; chemistry not fully specified) [SluD67] | 1.8 | 0.69 | 39 | 25.54 | 10.06 | 
CCTGACGTGGATGGGCAAACTG (guide RNA; chemistry not fully specified) [SluD09] | 1.48 | 1.16 | 5 | 33.83 | 12.5 | 
CCTGCAGTTTGCCCATCCACGT (guide RNA; chemistry not fully specified) [SluD11] | 2.22 | 1.7 | 16 | 52.55 | 14.54 | 
CCTGTAGCCTGTCAGCGAGTCG (listed as DNA, chemistry not fully specified) [SluD68] | 1.94 | 2.3 | 72 | 25.13 | 12.88 | high editing IN4DEL efficiency
CGAGAGCAGCGCAAGTGAGGAG (guide RNA; chemistry not fully specified) [SluD49] | 2.3 | 2.83 | 41 | 37.77 | 12.39 | 
CGAGGGTCGGGGGTGGGGGTCC (guide RNA; chemistry not fully specified) [SluD88] | 2.42 | 1.4 | 7 | 31.95 | 11.11 | 
CGCCCAGCTCCAGTCCTGTGAT (guide RNA; chemistry not fully specified) [SluU27] | 1.94 | 1.64 | 1 | 38.24 | 7.71 | 
